Like-named read-outs stand apart in the source and are kept apart here.
Target: T1, human CTPS1 (Homo sapiens, UniProt P17812)
T1 construct: FLAG (with GG linker); His8 (with GG linker); purchased Proteros biostructures GmbH
T1 sequence (P17812 1-591): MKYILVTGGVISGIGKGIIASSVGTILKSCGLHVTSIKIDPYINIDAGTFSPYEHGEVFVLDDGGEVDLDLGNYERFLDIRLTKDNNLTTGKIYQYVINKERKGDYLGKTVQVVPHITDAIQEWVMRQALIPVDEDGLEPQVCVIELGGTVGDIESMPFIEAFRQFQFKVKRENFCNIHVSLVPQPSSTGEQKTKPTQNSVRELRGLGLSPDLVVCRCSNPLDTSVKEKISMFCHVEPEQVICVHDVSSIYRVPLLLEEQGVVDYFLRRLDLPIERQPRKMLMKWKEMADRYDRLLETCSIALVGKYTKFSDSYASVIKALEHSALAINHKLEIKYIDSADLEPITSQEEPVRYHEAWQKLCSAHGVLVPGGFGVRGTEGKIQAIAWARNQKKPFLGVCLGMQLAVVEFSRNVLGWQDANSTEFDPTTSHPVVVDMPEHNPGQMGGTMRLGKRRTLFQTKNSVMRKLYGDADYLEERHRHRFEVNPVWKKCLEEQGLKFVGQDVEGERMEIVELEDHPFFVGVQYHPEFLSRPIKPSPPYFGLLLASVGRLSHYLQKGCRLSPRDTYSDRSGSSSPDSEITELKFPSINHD
Assay: Human CTPS1 enzyme inhibition, ADP-Glo Max assay
Type: biochemical
Method in brief: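 Enzyme preincubated with compound for 10 min at 25 °C in 50 mM Tris pH 8.0, 10 mM MgCl2, 0.01% Tween-20, 2 mM L-cysteine. ATP-to-ADP conversion detected by ADP-Glo Max luminescence after 60 min depletion and 60 min development steps. Percentage inhibition calculated per concentration.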

[1] = ADP-Glo Max assay, Table 10, read-out: Human CTPS1 Enzyme Inhibition, IC50 grouped by potency range (CTPS1)

| IC50 [1] | IC50 (Table 12, ADP-Glo Max assay, read-out: CTPS1 (Human CTPS1 Enzyme Inhibition data grouped by potency range)) | Compound |
| --- | --- | --- |
| 100 to 1000 nM | – | CCOc1cncc(-c2ccc(NC(=O)C(C)(C)c3csc(NS(=O)(=O)CC(C)C)n3)nc2)n1 [T295, N-(5-(6-ethoxypyrazin-2-yl)pyridin-2-yl)-2-methyl-2-(2-((2-methylpropyl)sulfonamido)thiazol-4-yl)propanamide] |
| 100 to 1000 nM | – | CC(C)(C(=O)Nc1ccc(-c2ccccc2)nc1)c1csc(NS(=O)(=O)C2CC2)n1 [T239, 2-(2-(cyclopropanesulfonamido)thiazol-4-yl)-2-methyl-N-(6-phenylpyridin-3-yl)propanamide] |
| 100 to 1000 nM | – | O=C(Cc1csc(NS(=O)(=O)C2CC2)n1)Nc1ccc(-c2ccccc2)nc1 [T66, 2-(2-(cyclopropanesulfonamido)thiazol-4-yl)-N-(6-phenylpyridin-3-yl)acetamide] |
| 1000 to 10000 nM | – | Cc1nccnc1-c1ccc(NC(=O)C(C)(C)c2csc(NS(=O)(=O)C3CC3)n2)cc1 [T280, 2-(2-(cyclopropanesulfonamido)thiazol-4-yl)-2-methyl-N-(4-(3-methylpyrazin-2-yl)phenyl)propanamide] |
| < 100 nM | – | Cc1cncc(-c2ccc(NC(=O)C(C)(C)c3csc(NS(=O)(=O)C4CC4)n3)cc2)c1 [T30, 2-(2-(cyclopropanesulfonamido)thiazol-4-yl)-2-methyl-N-(4-(5-methylpyridin-3-yl)phenyl)propanamide] |
| 100 to 1000 nM | – | CC(C)(C(=O)Nc1ccc(-c2cccnc2)c(C#N)c1)c1csc(NS(=O)(=O)C2CC2)n1 [T152, N-(3-cyano-4-(pyridin-3-yl)phenyl)-2-(2-(cyclopropanesulfonamido)thiazol-4-yl)-2-methylpropanamide] |
| < 100 nM | – | CCC(CC)(C(=O)Nc1ccc(-c2cccnc2)cc1F)c1csc(NS(=O)(=O)C2CC2)n1 [T121, 2-(2-(cyclopropanesulfonamido)thiazol-4-yl)-2-ethyl-N-(2-fluoro-4-(pyridin-3-yl)phenyl)butanamide] |
| – | < 100 nM | CCOC(=O)CN1CCC(C(=O)Nc2ccc(-c3cncc(OCC)n3)cn2)(c2nccc(NS(=O)(=O)C3CC3)n2)CC1 [P295] |
| < 100 nM | – | COc1cncc(-c2ccc(NC(=O)C(C)(C)c3csc(NS(=O)(=O)C4CC4)n3)nc2)c1 [T224, 2-(2-(cyclopropanesulfonamido)thiazol-4-yl)-N-(5′-methoxy-[3,3′-bipyridin]-6-yl)-2-methylpropanamide] |
| < 100 nM | – | CC(C)(C(=O)Nc1ccc(-c2cncc(N3CCCC3)n2)cc1)c1csc(NS(=O)(=O)C2CC2)n1 [T278, 2-(2-(cyclopropanesulfonamido)thiazol-4-yl)-2-methyl-N-(4-(6-(pyrrolidin-1-yl)pyrazin-2-yl)phenyl)propanamide] |
| 1000 to 10000 nM | – | CN(C)CCOc1cncc(-c2ccc(NC(=O)C(C)(C)c3csc(NS(=O)(=O)C4CC4)n3)cc2)n1 [T279, 2-(2-(cyclopropanesulfonamido)thiazol-4-yl)-N-(4-(6-(2-(dimethylamino)ethoxy)pyrazin-2-yl)phenyl)-2-methylpropanamide] |
| < 100 nM | – | COc1cncc(-c2ccc(NC(=O)C(C)(C)c3csc(NS(=O)(=O)C4CC4)n3)c(C)c2)c1 [T285, 2-(2-(cyclopropanesulfonamido)thiazol-4-yl)-N-(4-(5-methoxypyridin-3-yl)-2-methylphenyl)-2-methylpropanamide] |
| < 100 nM | – | CC(C)(C(=O)Nc1ccc(-c2cncc(OC(F)F)c2)cc1)c1csc(NS(=O)(=O)C2CC2)n1 [T118, 2-(2-(cyclopropanesulfonamido)thiazol-4-yl)-N-(4-(5-(difluoromethoxy)pyridin-3-yl)phenyl)-2-methylpropanamide] |
| < 100 nM | – | CCOc1cncc(-c2ccc(NC(=O)C(C)(C)c3csc(NS(C)(=O)=O)n3)cc2)n1 [T434, N-(4-(6-ethoxypyrazin-2-yl)phenyl)-2-methyl-2-(2-(methylsulfonamido)thiazol-4-yl)propanamide] |
| < 100 nM | – | CC(C)(C(=O)Nc1ccc(-c2cncc(Cl)c2)cc1F)c1csc(NS(=O)(=O)C2CC2)n1 [T128, N-(4-(5-chloropyridin-3-yl)-2-fluorophenyl)-2-(2-(cyclopropanesulfonamido)thiazol-4-yl)-2-methylpropanamide] |
| 100 to 1000 nM | – | CCOc1cncc(-c2ccc(NC(=O)C(C)(C)c3csc(NS(=O)(=O)C(C)(C)C)n3)cc2)n1 [T304, 2-(2-((1,1-dimethylethyl)sulfonamido)thiazol-4-yl)-N-(4-(6-ethoxypyrazin-2-yl)phenyl)-2-methylpropanamide] |

| IC50 [1] | IC50 (Table 12, ADP-Glo Max assay, read-out: CTPS1 (Human CTPS1 Enzyme Inhibition data grouped by potency range)) | Compound |
| --- | --- | --- |
| 1000 to 10000 nM | – | Cc1cnc(C)c(-c2ccc(NC(=O)C(C)(C)c3csc(NS(=O)(=O)C4CC4)n3)cc2)n1 [T284, 2-(2-(cyclopropanesulfonamido)thiazol-4-yl)-N-(4-(3,6-dimethylpyrazin-2-yl)phenyl)-2-methylpropanamide] |
| < 100 nM | – | CC(C)(C(=O)Nc1ccc(-c2cncc(C#N)c2)cn1)c1csc(NS(=O)(=O)C2CC2)n1 [T226, N-(5′-cyano-[3,3′-bipyridin]-6-yl)-2-(2-(cyclopropanesulfonamido)thiazol-4-yl)-2-methylpropanamide] |
| < 100 nM | – | CC(C)(C(=O)Nc1ncc(-c2cncc(C#N)c2)cc1F)c1csc(NS(=O)(=O)C2CC2)n1 [T228, N-(5′-cyano-5-fluoro-[3,3′-bipyridin]-6-yl)-2-(2-(cyclopropanesulfonamido)thiazol-4-yl)-2-methylpropanamide] |
| 100 to 1000 nM | – | CC(C)CS(=O)(=O)Nc1nc(C(C)(C)C(=O)Nc2ccc(-c3cncc(C(F)(F)F)n3)cc2)cs1 [T313, 2-methyl-2-(2-((2-methylpropyl)sulfonamido)thiazol-4-yl)-N-(4-(6-(trifluoromethyl)pyrazin-2-yl)phenyl)propanamide] |
| 100 to 1000 nM | – | CC(C)(C(=O)Nc1ccc(-c2cncc(C(F)(F)F)n2)cc1)c1csc(NS(=O)(=O)C(C)(C)C)n1 [T305, 2-(2-((1,1-dimethylethyl)sulfonamido)thiazol-4-yl)-2-methyl-N-(4-(6-(trifluoromethyl)pyrazin-2-yl)phenyl)propanamide] |
| 100 to 1000 nM | – | CC(C)(C(=O)Nc1ccc(-c2cncc(S(C)(=O)=O)c2)cc1)c1csc(NS(=O)(=O)C2CC2)n1 [T49, 2-(2-(cyclopropanesulfonamido)thiazol-4-yl)-2-methyl-N-(4-(5-(methylsulfonyl)pyridin-3-yl)phenyl)propanamide] |
| 100 to 1000 nM | – | CC(C)(C(=O)Nc1ccc(-c2cncc(CO)c2)cc1)c1csc(NS(=O)(=O)C2CC2)n1 [T241, 2-(2-(cyclopropanesulfonamido)thiazol-4-yl)-N-(4-(5-(hydroxymethyl)pyridin-3-yl)phenyl)-2-methylpropanamide] |
| 100 to 1000 nM | – | Cc1cc(-c2cncc(C#N)c2)cc(C)c1NC(=O)C(C)(C)c1csc(NS(=O)(=O)C2CC2)n1 [T320, N-(4-(5-cyanopyridin-3-yl)-2,6-dimethylphenyl)-2-(2-(cyclopropanesulfonamido)thiazol-4-yl)-2-methylpropanamide] |
| 100 to 1000 nM | – | CC(C)(C(=O)Nc1ccc(-c2cncc(C#N)n2)cc1)c1csc(NS(=O)(=O)C2CC2)n1 [T154, N-(4-(6-cyanopyrazin-2-yl)phenyl)-2-(2-(cyclopropanesulfonamido)thiazol-4-yl)-2-methylpropanamide] |
| 100 to 1000 nM | – | CC(C)(C(=O)Nc1ccc(-c2cccc(Cl)n2)cc1)c1csc(NS(=O)(=O)C2CC2)n1 [T268, N-(4-(6-chloropyridin-2-yl)phenyl)-2-(2-(cyclopropanesulfonamido)thiazol-4-yl)-2-methylpropanamide] |
| < 100 nM | – | CCC(CC)(C(=O)Nc1ccc(-c2cnccn2)cc1)c1csc(NS(=O)(=O)C2CC2)n1 [T122, 2-(2-(cyclopropanesulfonamido)thiazol-4-yl)-2-ethyl-N-(4-(pyrazin-2-yl)phenyl)butanamide] |
| 1000 to 10000 nM | – | CN(C(=O)C(C)(C)c1csc(NS(=O)(=O)C2CC2)n1)c1ccc(-c2cccnc2)cc1 [T164, 2-(2-(cyclopropanesulfonamido)thiazol-4-yl)-N,2-dimethyl-N-(4-(pyridin-3-yl)phenyl)propanamide] |
| < 100 nM | – | CC(C)Oc1cncc(-c2ccc(NC(=O)C(C)(C)c3csc(NS(=O)(=O)C4CC4)n3)cc2)c1 [T158, 2-(2-(cyclopropanesulfonamido)thiazol-4-yl)-N-(4-(5-isopropoxypyridin-3-yl)phenyl)-2-methylpropanamide] |
| < 100 nM | – | CCOc1cncc(-c2ccc(NC(=O)C(C)(C)c3csc(NS(=O)(=O)C4CC4)n3)c(C)c2)n1 [T137, 2-(2-(cyclopropanesulfonamido)thiazol-4-yl)-N-(4-(6-ethoxypyrazin-2-yl)-2-methylphenyl)-2-methylpropanamide] |
| 100 to 1000 nM | – | CC(C)(C(=O)Nc1ncc(-c2cccnc2)cn1)c1csc(NS(=O)(=O)C2CC2)n1 [T37, 2-(2-(cyclopropanesulfonamido)thiazol-4-yl)-2-methyl-N-(5-(pyridin-3-yl)pyrimidin-2-yl)propanamide] |
| 1000 to 10000 nM | – | COc1cc(F)cc(-c2ccc(NC(=O)C(C)(C)c3csc(NS(=O)(=O)C4CC4)n3)nc2)c1 [T233, 2-(2-(cyclopropanesulfonamido)thiazol-4-yl)-N-(5-(3-fluoro-5-methoxyphenyl)pyridin-2-yl)-2-methylpropanamide] |

Source: US20230086703A1, “N-(4-(5-chloropyridin-3-yl)phenyl)-2-(2-(cyclopropanesulfonamido)pyrimidin-4-yl) butanamide derivatives and related compounds as human CTPS1 inhibitors for the treatment of proliferative diseases” (Step Pharma S.A.S., priority 2019, published 2023)
